Test results from ChEMBL document CHEMBL1201862, “PubChem BioAssay data set” (2004).
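All cell lines were grown in 96-well plates and treated with compound for 48 hours. Here, GI50 denotes the concentration required for 50% inhibition of growth.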 The source made the active and inactive calls. Rule as the data show it: active = GI50 up to about 1.1 µM and inactive = higher.

Columns and labels:
Assay in all cases: inhibition of tumour cell growth, NCI panel, 48 h
HCT-15 = tested on: HCT-15
786-0 = tested on: 786-0
RXF 393 = tested on: RXF 393
UACC-257 = tested on: UACC-257
SK-MEL-2 = tested on: SK-MEL-2
CAKI-1 = tested on: CAKI-1
COLO 205 = tested on: COLO 205
TK-10 = tested on: TK-10
OVCAR-3 = tested on: OVCAR-3
Malme-3M = tested on: Malme-3M
OVCAR-5 = tested on: OVCAR-5
KM12 = tested on: KM12
SF-539 = tested on: SF-539
HT-29 = tested on: HT-29
M14 = tested on: M14
HL-60 = tested on: HL-60
SW-620 = tested on: SW-620
SN12C = tested on: SN12C
A498 = tested on: A498

Compound | GI50 (HCT-15) [µM] | GI50 (786-0) | GI50 (RXF 393) | GI50 (UACC-257) | GI50 (SK-MEL-2) | GI50 (CAKI-1) | GI50 (COLO 205) | GI50 (TK-10) | GI50 (OVCAR-3) | GI50 (Malme-3M) | GI50 (OVCAR-5) | GI50 (KM12) | GI50 (SF-539) | GI50 (HT-29) | GI50 (M14) | GI50 (HL-60) | GI50 (SW-620) | GI50 (SN12C) | GI50 (A498)
CCOc1ccc(NCC2CC/C(=C\c3ccccc3OC)C2=O)cc1 (stereo not given) | 3.09 | 3.01 µM (inactive) | 8.91 µM (inactive) | 7.38 µM (inactive) | 20.3 µM (inactive) | 12.5 µM (inactive) | 2.29 µM (inactive) | 13.8 µM (inactive) | 6.37 µM (inactive) | 14.4 µM (inactive) | 18.5 µM (inactive) | 2.99 µM (inactive) | 10.3 µM (inactive) | 3.3 µM (inactive) | 3.64 µM (inactive) | 4.3 µM (inactive) | 4.23 µM (inactive) | 7.1 µM (inactive) | 19.6 µM (inactive)
CC(C)CC[C@H](O)[C@@H](C)[C@H]1[C@@H](OC2OC(C)C(O)C(O)C2O)C[C@H]2[C@@H]3CC=C4C[C@@H](O)CC[C@]4(C)[C@H]3[C@@H](O)C[C@]12C (stereo not given in full) | > 56.1 | 0.084 µM (active) | 0.124 µM (active) | 1.12 µM (inactive) | > 27 µM (inactive) | 2.58 µM (inactive) | 1.8 µM (inactive) | 0.692 µM (active) | > 100 µM (inactive) | 1.85 µM (inactive) | > 24.9 µM (inactive) | 3.28 µM (inactive) | 0.0337 µM (active) | 1.75 µM (inactive) | 1.55 µM (inactive) | 0.098 µM (active) | 0.533 µM (active) | > 100 µM (inactive) | 3.46 µM (inactive)
O=C1[C@H]2ON(c3ccccc3)C(c3ccc(Cl)cc3)[C@H]2C(=O)N1c1ccc(Cc2ccc(N3C(=O)[C@@H]4ON(c5ccccc5)C(c5ccc(Cl)cc5)[C@@H]4C3=O)cc2)cc1 (stereo not given in full) | > 100 | > 100 µM (inactive) | > 100 µM (inactive) | > 100 µM (inactive) | > 100 µM (inactive) | > 100 µM (inactive) | > 100 µM (inactive) | > 100 µM (inactive) | > 100 µM (inactive) | 40.7 µM (inactive) | > 100 µM (inactive) | > 100 µM (inactive) | > 100 µM (inactive) | > 100 µM (inactive) | 18.7 µM (inactive) | > 100 µM (inactive) | > 100 µM (inactive) | > 100 µM (inactive) | > 100 µM (inactive)
Cn1c2cc(O)cc(O)c2c(=O)c2c([N+](=O)[O-])cccc21 | > 100 | > 100 µM (inactive) | > 100 µM (inactive) | > 100 µM (inactive) | > 100 µM (inactive) | > 100 µM (inactive) | > 100 µM (inactive) | > 100 µM (inactive) | > 100 µM (inactive) | > 100 µM (inactive) | > 100 µM (inactive) | > 100 µM (inactive) | > 100 µM (inactive) | > 100 µM (inactive) | > 100 µM (inactive) | > 100 µM (inactive) | > 100 µM (inactive) | > 100 µM (inactive) | > 100 µM (inactive)
O=C(C#Cc1cnc(O)nc1O)c1ccccc1 | 12.3 | 12.2 µM (inactive) | 1.7 µM (inactive) | 11.5 µM (inactive) | 12.1 µM (inactive) | 18.2 µM (inactive) | 7.23 µM (inactive) | 13.8 µM (inactive) | 2.09 µM (inactive) | 3.34 µM (inactive) | 18.9 µM (inactive) | 15.2 µM (inactive) | 4.04 µM (inactive) | 21.8 µM (inactive) | 5.2 µM (inactive) | 3.3 µM (inactive) | 6.76 µM (inactive) | 4.37 µM (inactive) | 15.5 µM (inactive)
